The data set can be described thus: in vitro. As to conditions: rat, gh3-tre-luc cells.

Where a name gives a salt, the structure may show the parent alone. Some results are limits rather than exact numbers.

What is called CC50 is the concentration at which the toxic effect on the cells reaches its halfway point. Higher therefore signals better tolerance by the cells. For the setting “AC50 (uM) modified / 1000”, `OCC(CO)(CBr)CBr` [Pentaerythritol dibromide] returned a CC50 at 24 h above 90 µM.
On the same count and under the same terms, then `Cc1cc2c(C(C)C)c(O)c(O)c(C=O)c2c(O)c1-c1c(C)cc2c(C(C)C)c(O)c(O)c(C=O)c2c1O` [Gossypol], with 8.84 µM.
Still for that read-out and setting: as for `CCCC(=O)OCc1ccccc1` [Benzyl butyrate], the figure is above 90 µM; as for `CCN(CC)c1ccc2c(C)cc(=O)oc2c1` [7-Diethylamino-4-methylcoumarin], above 90 µM; as for `O=C(COc1ccc(Cl)cc1)N1CCN(Cc2ccc3c(c2)OCO3)CC1` [Fipexide hydrochloride], 66.7 µM.
Same read-out and setting: as for `NC(=O)OC[C@@H]1[C@H](NC(=O)/C(=N\OCC(=O)O)c2csc(N)n2)C(=O)N1S(=O)(=O)O` [Carumonam sodium], the figure is above 50 µM; as for `CC1(C)S[C@@H]2[C@H](NC(=O)[C@H](NC(=O)N3CCN(S(C)(=O)=O)C3=O)c3ccccc3)C(=O)N2[C@H]1C(=O)O` [Mezlocillin], above 50 µM.
With `O=Cc1ccc(F)c(Br)c1` [3-Bromo-4-fluorobenzaldehyde], the CC50 at 24 h (AC50 (uM) modified / 1000) was above 90 µM.
Same read-out and setting: as for `NS(=O)(=O)c1ccc(NC(=O)CCC(=O)O)cc1` [Sulfasuccinamide], the figure is above 50 µM; as for `Cc1ccc2c(Br)cc(Br)c(O)c2n1` [Broquinaldol], 23 µM; as for `O=[N+]([O-])c1cc(C(F)(F)F)cc([N+](=O)[O-])c1Cl` [2-Chloro-1,3-dinitro-5-(trifluoromethyl)benzene], above 90 µM.
`CC(C)(C)C(O)C(Oc1ccc(Cl)cc1)n1cncn1` (stereo not drawn) [Triadimenol] had a CC50 at 24 h (AC50 (uM) modified / 1000) above 90 µM.
Compound `O=P(O)(O)OCC(O)CO` (stereo not drawn) [Dipotassium glycerophosphate] had a CC50 at 24 h (AC50 (uM) modified / 1000) above 50 µM.
Regarding `C[C@]12CC[C@H]3[C@@H](CCC4=CC(=O)CC[C@@]43C)[C@@H]1CC[C@H]2O` [Epitestosterone], the CC50 at 24 h (AC50 (uM) modified / 1000, Tox21_110001=Tox21_111058, viability, 1 nM T3 present, 24 h) was above 50 µM.
`C[N+](C)(C)CC[N+]1(C)Cc2c(Cl)c(Cl)c(Cl)c(Cl)c2C1` [Chlorisondamine chloride] displayed a CC50 at 24 h (AC50 (uM) modified / 1000) above 50 µM.
On the same count and under the same terms, then `NC(=O)Nc1ccccc1` [1-Phenylurea], with above 90 µM; and `O=C1NS(=O)(=O)c2ccccc21` [Sodium saccharin], with above 90 µM.
On the same count and under the same terms, then `NC(=O)OCCCc1ccccc1` [Phenprobamate], with above 50 µM.
Still for that read-out and setting: as for `CCCCCCCO` [1-Heptanol], the figure is above 90 µM; as for `C=CC(C)(O)CCCC(C)CCCC(C)CCCC(C)C` (stereo not drawn) [Isophytol], above 90 µM.
Compound `CN1CCCN=C1/C=C/c1cccs1` [Pyrantel tartrate] had a CC50 at 24 h (AC50 (uM) modified / 1000) above 50 µM.
On the same count and under the same terms, then `CCN(CC)CCNC(=O)COc1ccc(Cl)cc1` [Clofexamide], with above 50 µM.
`NNc1ccccc1` [Phenylhydrazine hydrochloride]: the CC50 at 24 h reads like this: (AC50 (uM) modified / 1000, Tox21_110001=Tox21_111618, viability, 1 nM T3 present, 24 h) above 50 µM; (AC50 (uM) modified / 1000, Tox21_110001=Tox21_202198, viability, 1 nM T3 present, 24 h) 40.6 µM; (AC50 (uM) modified / 1000, Tox21_110001=Tox21_302936, viability, 1 nM T3 present, 24 h) 66.7 µM.
As for `C/C=C(\C)C=O` [2-Methyl-2-butenal], for the setting “AC50 (uM) modified / 1000”, the CC50 at 24 h is above 90 µM.
The compound `Cc1cc(C)cc(N)c1` [3,5-Dimethylaniline] had a CC50 at 24 h (AC50 (uM) modified / 1000) above 90 µM.
On the same count and under the same terms, as for `CNCCc1ccccn1` [Betahistine mesylate], the figure is above 20 µM; as for `O=C(O)CCC(=O)Nc1ccc(S(=O)(=O)Nc2nccs2)cc1` [Succinylsulfathiazole], above 20 µM.
The same measure, in the same setting: as for `Fc1ccc([C@@]2(Cn3cncn3)O[C@@H]2c2ccccc2Cl)cc1` (racemic) [Epoxiconazole], the figure is above 90 µM; as for `CO[Si](CCCNc1ccccc1)(OC)OC` [N-[3-(Trimethoxysilyl)propyl]aniline], above 90 µM; as for `C=C(C)C(=O)OCCOC1CC2CC1C1C=CCC21` (stereo not drawn) [(Dicyclopentadienyloxy)ethyl methacrylate], above 100 µM.
Where the note is “AC50 (uM) modified / 1000”, `OCCOCCN1CCN(C2=Nc3ccccc3Sc3ccccc32)CC1` [Quetiapine] had a CC50 at 24 h above 50 µM.
Same read-out and setting: as for `Oc1ccc(Oc2ccccc2)cc1` [4-Phenoxyphenol], the figure is 35.8 µM; as for `CCCCC(=O)OCC(=O)[C@]1(O)Cc2c(O)c3c(c(O)c2[C@@H](O[C@H]2C[C@H](NC(=O)C(F)(F)F)[C@H](O)[C@H](C)O2)C1)C(=O)c1c(OC)cccc1C3=O` [Valrubicin], 8.11 µM; as for `CC1(C)NC(=O)N(c2ccc([N+](=O)[O-])c(C(F)(F)F)c2)C1=O` [Nilutamide], above 90 µM.
Same read-out and setting: then `Cc1nc([N+](=O)[O-])cn1-c1ccc([N+](=O)[O-])cc1` [Nitrefazole], with above 50 µM; and `CC(C)(S)[C@@H](N)C(=O)O` [D-Penicillamine], with above 50 µM.
The same measure, in the same setting: as for `O=C(Nc1ccc(Br)cc1)c1cc(Br)c(Br)s1` [Tibrofan], the figure is 19.8 µM; as for `CN(C)C(=O)C1(N2CCCCC2)CCN(CC[C@@]2(c3ccc(Cl)c(Cl)c3)CN(C(=O)c3ccccc3)CCO2)CC1` [SSR 241586 HCl], 4.07 µM; as for `c1coc(CNc2ncnc3[nH]cnc23)c1` [Kinetin], above 90 µM.
As to `C=CCOc1ccccc1OCC(O)CNC(C)C` (stereo not drawn) [Oxprenolol hydrochloride], the CC50 at 24 h (AC50 (uM) modified / 1000) was above 20 µM.
The compound `CCc1ccc(C(c2ccc(CC)cc2)C(Cl)Cl)cc1` [p,p'-Ethyl-DDD] came in with a CC50 at 24 h (AC50 (uM) modified / 1000) of 82.4 µM.
On the same count and under the same terms, then `NCCOCCO` [2-(2-Aminoethoxy)ethanol], with above 90 µM; and `CCCCC(CC)COP(=O)(O)OCC(CC)CCCC` (stereo not drawn) [Bis(2-ethylhexyl) phosphate], with 63.4 µM; and `CCCCC(CC)COC(=O)CCCCCCCC(=O)OCC(CC)CCCC` (stereo not drawn) [Bis(2-ethylhexyl) nonanedioate], with above 90 µM.
`NCc1cccc(C2CCN(C(=O)c3ccc(C#Cc4ccccc4F)o3)CC2)c1` [AVE5638]: the CC50 at 24 h (AC50 (uM) modified / 1000) is 6.44 µM.
The same measure, in the same setting: then `CO[Si](CCCNCCC[Si](OC)(OC)OC)(OC)OC` [3-(Trimethoxysilyl)-N-[3-(trimethoxysilyl)propyl]propan-1-amine], with above 90 µM; and `CN1C2=CC(=O)/C(=N\NC(N)=O)C=C2CC1S(=O)(=O)O` (stereo not drawn) [Carbazochrome sodium sulfonate], with above 50 µM.
On the same count and under the same terms, then `O=C(O)c1cccc(-c2noc(-c3ccccc3F)n2)c1` [Ataluren], with above 50 µM; and `NC(=O)C[C@@H](N)C(=O)O` [D-Asparagine hydrate], with above 50 µM.
Where the note is “AC50 (uM) modified / 1000”, `O=S(=O)(Cl)c1ccccc1` [Benzenesulfonyl chloride] showed a CC50 at 24 h above 90 µM.
On the same count and under the same terms, as for `COCCOCCO` [Diethylene glycol monomethyl ether], the figure is above 90 µM.
On the same count and under the same terms, then `CCCN(CCC)CCc1cccc2c1CC(=O)N2` [Ropinirole], with above 50 µM; and `CC(C)COC(=O)/C=C/c1ccccc1` [Isobutyl 3-phenylacrylate], with above 90 µM; and `CCCCCC/C=C\CCCCCCCC(=O)O` [(Z)-Hexadec-9-enoic acid], with above 90 µM.
The compound `O=C(c1ccc(OCCN2CCCCC2)cc1)c1c(-c2ccc(O)cc2)sc2cc(O)ccc12` [Raloxifene] showed a CC50 at 24 h (AC50 (uM) modified / 1000) of 3.84 µM.
On the same count and under the same terms, then `COC(=O)/C=C(\C)CCC=C(C)C` [Methyl geranate], with above 90 µM; and `CC(=O)NS(=O)(=O)c1ccc(N)cc1` [Sulfacetamide], with above 90 µM; and `CCC(=O)c1ccc(O)cc1` [Paroxypropione], with above 50 µM.

The values above are taken from article PMC6792352, “Limited Chemical Structural Diversity Found to Modulate Thyroid Hormone Receptor in the Tox21 Chemical Library” (Environmental Health Perspectives, 2019).
